Assay results reported in patent US20210260101A1, “POTENTIATED ANTIBIOTIC COMPOSITIONS AND METHODS OF USE FOR TREATING BACTERIAL INFECTIONS AND BIOFILMS” (priority 2018, published 2021).
“And” between values parts separate entries of the source, which are not always exact repeats. Identical values can stand only once. Like-named read-outs stand apart in the source and are kept apart here. Marks after values point to notes of the source that are not given here.

Key:
MRSA MW2 = experiment: Checkerboard assay (Example 3), MRSA MW2; format: cell-based, Staphylococcus aureus; details: for MIC: MRSA MW2, agent alone
Procedure: (§1) Cells were grown at 37° C. The change in OD600 (optical density at 600 nm) was measured and recorded after 24 hr of treatment. Each checkerboard trial was done in triplicate using sterile Greiner CellStar™ flat bottom polystyrene plates, catalog #655180.

[1] = test system: MRSA clinical isolate OU11; experiment: Clinical laboratory susceptibility (MicroScan), MRSA isolate 11; format: cell-based, S. aureus; details: MicroScan PC33 gram positive panel
[2] = test system: MRSA clinical isolate OU6; experiment: Clinical laboratory susceptibility (MicroScan), MRSA isolate 6; format: cell-based, S. aureus; details: MicroScan PC33 gram positive panel
[3] = test system: S. epidermidis ATCC 35984 (MRSE 35984); experiment: MIC/potentiation against MRSE 35984 (Example 1); format: cell-based, Staphylococcus epidermidis
MRSA USA300 (BAA-1717) = experiment: Checkerboard assay (Example 3), MRSA USA300; format: cell-based, Staphylococcus aureus; details: for MIC: MRSA USA300, agent alone
Procedure: as §1

MRSA USA 300 ATCC 1717 = experiment: Checkerboard MIC assay against MRSA USA300 (Example 1); format: cell-based, Staphylococcus aureus; details: for MIC: Staphylococcus aureus
[4] = test system: S. epidermidis ATCC 12228 (MSSE 12228); experiment: MIC/potentiation against MSSE 12228; format: cell-based, Staphylococcus epidermidis
MRSE 35984 = experiment: Checkerboard assay (Example 3), MRSE 35984; format: cell-based, Staphylococcus epidermidis
Procedure: as §1

MRSE 35984 biofilm = experiment: MBEC assay (challenge plate MIC, recovery plate MBEC), MRSE 35984; format: cell-based, Staphylococcus epidermidis
Procedure: A sub-culture of MRSE was grown from the cryogenic stock on an agar plate overnight at 35° C. The MBEC plate was inoculated with 150 μL of TSB/well plus 1 μL of a stock culture made from 1 colony/mL of MRSE in TSB. The MBEC inoculator plate was sealed with Parafilm and incubated for 24 hours at 35° C. with 100 rpm shaking to facilitate biofilm formation on the prongs. Following biofilm formation, the lid of the MBEC inoculator was removed and placed in a rinse plate containing 200 μL of sterile PBS for 10 sec. Biofilm growth check (BGC) was performed by breaking a few prongs off using sterile pliers, submerging them in 1 mL PBS, and sonicating them on high for 30 minutes to dislodge the biofilm. After sonication, the biofilm solution was serial-diluted and spot-plated on agar plates for CFU counting to determine the biofilm density on the prongs.
A challenge plate was made in a new pre-sterilized 96-well plate in a checkerboard-assay pattern to test the synergistic activity of BPEI+antibiotic combinations. Antimicrobial solutions were serial-diluted and added to the 96-well plate, which contained 200 μL of cation-adjusted Mueller-Hinton broth (MHB) per well. Following the rinsing step and biofilm growth check, the MBEC inoculator lid was immediately transferred into the prepared antimicrobial challenge plate and incubated at 35° C. for 20-24 hours. After the challenge period, the MBEC inoculator lid was transferred into a recovery plate containing 200 μL of MHB per well, sonicated on high for 30 minutes to dislodge the biofilm and then incubated at 35° C. for 20-24 hour to allow the surviving bacterial cells to grow. After incubation, the OD600 (optical density at 600 nm) of the recovery plate was measured using a Tecan Infinite M20 plate reader to determine the MBEC of the antimicrobial compounds tested. A change in OD600 greater than 0.05 indicated positive growth. Likewise, the OD600 for the base of the challenge plate was measured […] to determine the MICs of the antimicrobial compounds.

MRSE 35984 biofilms = experiment: Biofilm kill curve; format: cell-based, Staphylococcus epidermidis; details: 64 μg/mL BPEI, 16 μg/mL oxacillin, or both
Procedure: Biofilm was grown in an MBEC inoculator plate for 24 hours with shaking to facilitate biofilm formation. At time zero, the prongs were sonicated in PBS for 30 minutes and then plated on agar for CFU counting. […] The prongs on the MBEC inoculator were washed in PBS for 10 seconds and then transferred into the new treated base plate and incubated. Agar CFU plating was performed at 2 hours, 4 hours, 8 hours, and 24 hours for each treatment group. All the agar plating was incubated at 35° C. and counted for colony forming units the next day. Each trial was done in duplicate.

With `Cc1onc(-c2ccccc2)c1C(=O)N[C@@H]1C(=O)N2[C@@H]1SC(C)(C)[C@@H]2C(=O)O` [oxacillin] the “OXA MIC in combination with 600 Da BPEI” value (MRSA MW2; BPEI amount in same cell) was 2 µg/mL, the MIC (MRSA MW2; listed as OXA) was 32 µg/mL and 16 µg/mL and the “OXA MIC in combination with PEG-BPEI” value (MRSA MW2; PEG-BPEI amount in same cell) was 4 µg/mL. For the same molecule, the MIC (MRSA MW2; Staphylococcus aureus, MRSA, read-out: MIC) was 32 µg/mL, the MIC [1] was over 2 µg/mL and the MIC [2] was over 2 µg/mL. For the same molecule, the “MIC, antibiotic + 2 μg/ml (3.375 μM) 600-Da BPEI” value [3] was 2 µg/mL, the “MIC, antibiotic + 4 μg/ml (6.75 μM) 600-Da BPEI” value [3] was 0.25 µg/mL and the “fold reduction of oxacillin MIC” value ([3]; adding 6.75 μM of BPEI600) was 256 fold. The “MIC of antibiotic only” value ([3]; agent alone) was 64 µg/mL, the “OXA MIC in combination with 600 Da BPEI” value (MRSA USA300 (BAA-1717); BPEI amount in same cell) was 4 µg/mL and the MIC (MRSA USA300 (BAA-1717); listed as OXA) was 32 µg/mL and 16 µg/mL. For the same molecule, the “OXA MIC in combination with PEG-BPEI” value (MRSA USA300 (BAA-1717); PEG-BPEI amount in same cell) was 2 µg/mL, the MIC (MRSA USA300 (BAA-1717); Staphylococcus aureus, read-out: MIC) was 32 µg/mL and the “MIC with 4 μg/ml (6.75 μM) 600-Da BPEI” value (MRSA USA 300 ATCC 1717; MRSA USA300) was 1 µg/mL. The “MIC, antibiotic + 16 μg/ml (17 μM) PEG350BPEI600” value (MRSA USA 300 ATCC 1717; MRSA USA300) was 0.5 µg/mL, the “MIC, antibiotic + 64 μg/ml (40 μM) PEG1000BPEI600” value (MRSA USA 300 ATCC 1717; MRSA USA300) was 0.5 µg/mL and the MIC (MRSA USA 300 ATCC 1717; MRSA USA300, agent alone, read-out: MIC of antibiotic only) was 16 µg/mL. The MIC (MRSA USA 300 ATCC 1717; MRSA USA300, read-out: oxacillin MIC with 16 μg/mL of PEG350BPEI600 (17 μM)) was 0.5 µg/mL, the “effect of 50% FBS on oxacillin MIC” value (MRSA USA 300 ATCC 1717; potentiation in fetal bovine serum vs CAMHB without FBS) was “does not change” and the “fold reduction of oxacillin MIC” value (MRSA USA 300 ATCC 1717; with BPEI600, MRSA USA300) was 2 fold. The “MIC, antibiotic + 2 μg/ml (3.375 μM) 600-Da BPEI” value [4] was 0.1 µg/mL, the “MIC, antibiotic + 4 μg/ml (6.75 μM) 600-Da BPEI” value [4] was 0.1 µg/mL and the “MIC of antibiotic only” value ([4]; agent alone) was 0.1 µg/mL. The “OXA MIC in combination with 600 Da BPEI” value (MRSE 35984; BPEI amount in same cell) was 8 µg/mL, the MIC (MRSE 35984; MRSE 35984, agent alone) was 32 µg/mL and the MIC (MRSE 35984; MRSE 35984, agent alone, listed as OXA) was 32 µg/mL and 64 µg/mL. The “OXA MIC in combination with PEG-BPEI” value (MRSE 35984; PEG-BPEI amount in same cell) was 8 µg/mL, the MIC (MRSE 35984; Staphylococcus epidermidis, MRSE, MRSE 35984, agent alone, read-out: MIC) was 64 µg/mL and the MIC (MRSE 35984; Staphylococcus epidermidis, MRSE, read-out: oxacillin MIC with 6.67 μM BPEI600, MRSE planktonic cells) was 4 µg/mL. For the same molecule, the MIC (MRSE 35984; Staphylococcus epidermidis, MRSE, read-out: oxacillin MIC with 33.37 μM of PEG350-BPEI600, MRSE planktonic cells) was 4 µg/mL, the “MBEC, antibiotic + 4 μg/ml (6.75 μM) 600-Da BPEI” value (MRSE 35984 biofilm; MRSE 35984 biofilm) was 8* μg/ml and the “oxacillin MBEC with 8 μg/mL of BPEI” value (MRSE 35984 biofilm; MRSE 35984 biofilm) was 32 µg/mL. For the same molecule, the “oxacillin MBEC with 64 μg/mL of BPEI” value (MRSE 35984 biofilm; MRSE 35984 biofilm) was 8 µg/mL, the “oxacillin MBEC in the presence of 13 μM of BPEI600” value (MRSE 35984 biofilm; MRSE biofilm) was 16 µg/mL and the MIC (MRSE 35984 biofilm; Staphylococcus epidermidis, MRSE 35984 planktonic, agent alone) was 16 µg/mL. The “biofilm cell density at 24 hours” value (MRSE 35984 biofilms) was ~10^3 CFU/mL.
